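Interpolation was linear, between the two tested concentrations surrounding the appropriate level; five concentrations were tested over 48 hours in 96-well plates. TGI marks complete inhibition of growth.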
Tests used:
Experiment in all cases: NCI tumour cell line growth inhibition, 48 h
786-0 renal = system: 786-0 renal
A549 NSCLC = system: A549 NSCLC
ACHN renal = system: ACHN renal
BT-549 breast = system: BT-549 breast
CAKI-1 renal = system: CAKI-1 renal
CCRF-CEM leukemia = system: CCRF-CEM leukemia
COLO 205 colon = system: COLO 205 colon
DU-145 prostate = system: DU-145 prostate
EKVX NSCLC = system: EKVX NSCLC
HCC-2998 colon = system: HCC-2998 colon
HCT-116 colon = system: HCT-116 colon
HCT-15 colon = system: HCT-15 colon
HOP-62 NSCLC = system: HOP-62 NSCLC
HOP-92 NSCLC = system: HOP-92 NSCLC
HT29 colon = system: HT29 colon
IGROV1 ovarian = system: IGROV1 ovarian
K-562 leukemia = system: K-562 leukemia
KM12 colon = system: KM12 colon
LOX IMVI melanoma = system: LOX IMVI melanoma
M14 melanoma = system: M14 melanoma
MALME-3M melanoma = system: MALME-3M melanoma
MCF7 breast = system: MCF7 breast
MDA-MB-231 breast = system: MDA-MB-231 breast
MDA-MB-435 = system: MDA-MB-435
MDA-N = system: MDA-N
MOLT-4 leukemia = system: MOLT-4 leukemia
NCI-H226 lung = system: NCI-H226 lung
NCI-H23 lung = system: NCI-H23 lung
NCI-H460 lung = system: NCI-H460 lung
NCI-H522 lung = system: NCI-H522 lung
NCI/ADR-RES ovarian = system: NCI/ADR-RES ovarian
OVCAR-3 ovarian = system: OVCAR-3 ovarian
OVCAR-4 ovarian = system: OVCAR-4 ovarian
OVCAR-5 ovarian = system: OVCAR-5 ovarian
OVCAR-8 ovarian = system: OVCAR-8 ovarian
PC-3 prostate = system: PC-3 prostate
RPMI-8226 leukemia = system: RPMI-8226 leukemia
RXF 393 renal = system: RXF 393 renal
SF-295 CNS = system: SF-295 CNS
SF-539 CNS = system: SF-539 CNS
SK-MEL-2 melanoma = system: SK-MEL-2 melanoma
SK-MEL-28 melanoma = system: SK-MEL-28 melanoma
SK-MEL-5 melanoma = system: SK-MEL-5 melanoma
SK-OV-3 ovarian = system: SK-OV-3 ovarian
SN12C renal = system: SN12C renal
SNB-19 CNS = system: SNB-19 CNS
SNB-75 CNS = system: SNB-75 CNS
SW-620 colon = system: SW-620 colon
T-47D breast = system: T-47D breast
TK-10 renal = system: TK-10 renal
U251 CNS = system: U251 CNS
UACC-257 melanoma = system: UACC-257 melanoma
UACC-62 melanoma = system: UACC-62 melanoma
UO-31 renal = system: UO-31 renal
A498 renal = system: A498 renal
SF-268 CNS = system: SF-268 CNS

Measured: TGI

CCN(C(=O)N[C@@H](Cc1ccccc1)C(=O)N[C@@H](CC(C)C)C(=O)NC)c1ccccc1
not listed: A498 renal | SF-268 CNS
> 100 µM: all other assays above

CC(C)(C)c1cc(COc2cc(COc3ccc(-c4c5c(nc6c4CCc4ccc(-c7c8ccccc8nc8ccccc78)cc4-6)-c4cc(-c6c7ccccc7nc7ccccc67)ccc4CC5)cc3)cc(OCc3cc(C(C)(C)C)cc(C(C)(C)C)c3)c2)cc(C(C)(C)C)c1
not listed: CCRF-CEM leukemia | HT29 colon | IGROV1 ovarian | LOX IMVI melanoma | MOLT-4 leukemia | OVCAR-8 ovarian | RXF 393 renal | SF-539 CNS | SW-620 colon
> 100 µM: all other assays above

Reference: PubChem BioAssay (NCI)
